# Source: US5817667A, “Compounds and methods for the treatment of cancer” (University of Georgia Research Foudation, priority 1994, dated 1998)
# Assays:
# SP-295 = test: NCI cancer screening, growth inhibition (SRB); format: cell-based; conditions: CNS Cancer, 48 hours exposure
# SP-268 = test: NCI cancer screening, growth inhibition (SRB); format: cell-based; conditions: 48 h, read-out: Log10 GI50 (converted)
# DU-145 = test: NCI cancer screening, growth inhibition (SRB); format: cell-based; conditions: Prostate Cancer; 48 hours exposure
# UACC-257 = test: NCI cancer screening, growth inhibition (SRB); format: cell-based
# MDA-MB-231/ATCC = conditions: Breast Cancer; 48 hours exposure
# NCI-H322M = conditions: Non-Small Cell Lung Cancer; 48 hours exposure
# SK-MEL-5 = test: NCI cancer screening, growth inhibition (SRB); format: cell-based; conditions: Melanoma, 48 hours exposure
# Colon 38 tumor cells = test: In vivo treatment of Colon 38 tumor cells implanted sc in BDF1 mice; conditions: 25 mg/kg/dose twice daily for five days, FIG. 2
# Description: The graph plots tumor growth as a percentage of original tumor weight vs. days. Treatment of the mice occurred in days 1, 2, 3, 4 and 5.
# Colon 38 tumor cells were implanted sc to BDF1 mice.
# BSOLT-4 = test: NCI cancer screening, growth inhibition (SRB); format: cell-based; conditions: Leukemia; 48 hours exposure
# [1] = NCI cancer screening, growth inhibition (SRB); format: cell-based; conditions: Leukemia; 48 hours exposure; read-out: Log10 GI50 (converted)
# Leukemia P388 cells = test: In vivo treatment of leukemia P388 cells implanted ip in BDF1 mice
# OVCAR-8 = test: NCI cancer screening, growth inhibition (SRB); format: cell-based; conditions: Homo sapiens, OVCAR-8, 48 h, read-out: Log10 GI50 (converted)
# SN12C = test: NCI cancer screening, growth inhibition (SRB); format: cell-based; conditions: Renal Cancer, 48 hours exposure
# colon cell lines = test: NCI cancer screening, relative sensitivity (FIG. 4); format: cell-based; conditions: FIG. 4, certain colon cell lines
# Description: (§1) Bars extending to the right represent sensitivity of the cell line to (-)-OddC in excess of the average sensitivity of all tested cell lines. […] Bars extending to the left correspondingly imply sensitivity less than the mean. These cell lines can be easily determined from Table 2, as the log10 concentration will be preceded by a ">".
# [2] = test system: prostate cancer cell lines; test: as above; format: cell-based; conditions: FIG. 4, certain prostate cancer cell lines
# Description: as §1
# [3] = test system: each type of cancer cell tested; test: as above; format: cell-based; conditions: FIG. 4, on the basis of GI50; at least one cell line of each type
# Description: as §1
# leukemia cell lines = test: as above; format: cell-based; conditions: FIG. 4, certain leukemia cell lines
# Description: as §1
# HCT-15 = test: NCI cancer screening, growth inhibition (SRB); format: cell-based; conditions: Colon Cancer, 48 hours exposure
# OROV1 = test: NCI cancer screening, growth inhibition (SRB); format: cell-based; conditions: Ovarian Cancer; 48 hours exposure
# Description: PG=100×(Mean ODtest -Mean ODtzero)/(Mean ODtzero)
# T-47D = test: NCI cancer screening, growth inhibition (SRB); format: cell-based
# K2112 = test: cells; conditions: 48 h, read-out: Log10 GI50 (converted)
# OVCAR-5 = test: NCI cancer screening, growth inhibition (SRB); format: cell-based; conditions: Ovarian Cancer, 48 hours exposure
# NCI-H460 = test: NCI cancer screening, growth inhibition (SRB); format: cell-based; conditions: Non-Small Cell Lung Cancer, 48 hours exposure
# RL-60(TB) = test: NCI cancer screening, growth inhibition (SRB); format: cell-based; conditions: Leukemia, 48 hours exposure
# BT-549 = test: NCI cancer screening, growth inhibition (SRB); format: cell-based; conditions: Breast Cancer, 48 hours exposure
# OVCAR-4 = test: NCI cancer screening, growth inhibition (SRB); format: cell-based
# MDA-MB-435 = test: NCI cancer screening, growth inhibition (SRB); format: cell-based; conditions: Homo sapiens, MDA-MB-435, 48 h, read-out: Log10 GI50 (converted)
# RXF-393 = test: NCI cancer screening, growth inhibition (SRB); format: cell-based; conditions: Renal Cancer, 48 hours exposure
# UO-31 = test: NCI cancer screening, growth inhibition (SRB); format: cell-based; conditions: Renal Cancer, 48 hours exposure
# ACHN = test: NCI cancer screening, growth inhibition (SRB); format: cell-based; conditions: Renal Cancer, 48 hours exposure
# [4] = read-out: Log10 GI50 (converted)
# [5] = 25 mg/kg ip, twice a day, days 1 to 5
smiles,measurement,setting,value
"Nc1ccn([C@@H]2CO[C@H](CO)O2)c(=O)n1 [(-)-OddC, (-)-(2S,4S)-1-(2-hydroxymethyl-1,3-dioxolan-4-yl)cytosine]",Log10 TGI,SP-295,> -4.00
same,GI50,SP-295; [4],0.575 µM
same,GI50,SP-268,6.61 µM
same,Log10 TGI,DU-145,> -4.00
same,GI50,"UACC-257; Homo sapiens, UACC-257, 48 h, read-out: Log10 GI50 (converted)",> 100 µM
same,Log10 TGI,"UACC-257; Melanoma, 48 hours exposure",> -4.00
same,Log10 TGI,MDA-MB-231/ATCC,> -4.00
same,Log10 TGI,NCI-H322M,> -4.00
same,GI50,"SK-MEL-5; Homo sapiens, SK-MEL-5, read-out: Log10 GI50 (converted)",12.3 µM
same,Log10 TGI,SK-MEL-5,> -4.00
same,colon tumor cell growth,Colon 38 tumor cells,retarded
same,Log10 TGI,BSOLT-4,-4.39
same,GI50,[1],0.219 µM
same,Cures/Total (survivors equal or greater than 45 day life span),Leukemia P388 cells; [5],1/6
same,ILS (Increased Life Span percent above control),Leukemia P388 cells; [5],103%
same,Mean Survival Time,"Leukemia P388 cells; 25 mg/kg ip, twice a day, days 1 to 5 (control 13.3 days)",27 days
same,life span increase of the remaining five mice,"Leukemia P388 cells; 25 mg/kg/dose ip, twice daily for five days",103%
same,long term survivors,Leukemia P388 cells; of six mice treated with 25 mg/kg/dose,one long term survivor
same,GI50,OVCAR-8,1.51 µM
same,GI50,"SN12C; Homo sapiens, SN12C, read-out: Log10 GI50 (converted)",0.537 µM
same,Log10 TGI,SN12C,> -4.00
same,sensitivity to (-)-OddC,colon cell lines,extreme sensitivity
same,sensitivity to (-)-OddC,[2],extreme sensitivity
same,sensitivity to (-)-OddC,[3],exhibited sensitivity
same,sensitivity to (-)-OddC,leukemia cell lines,extreme sensitivity
same,Log10 TGI,HCT-15,> -4.00
same,GI50,"HCT-15; Homo sapiens, HCT-15, read-out: Log10 GI50 (converted)",4.07 µM
same,Log10 TGI,OROV1,> -4.00
same,Log10 TGI,"T-47D; Breast Cancer, 48 hours exposure",> -4.00
same,GI50,"T-47D; Homo sapiens, T47D, 48 h, read-out: Log10 GI50 (converted)",> 100 µM
same,GI50,K2112,> 100 µM
same,GI50,"OVCAR-5; Homo sapiens, OVCAR-5, read-out: Log10 GI50 (converted)",38.9 µM
same,Log10 TGI,OVCAR-5,> -4.00
same,GI50,"NCI-H460; Homo sapiens, NCI-H460, read-out: Log10 GI50 (converted)",47.9 µM
same,Log10 TGI,NCI-H460,> -4.00
same,Log10 TGI,RL-60(TB),> -4.00
same,GI50,RL-60(TB); [4],0.525 µM
same,Log10 TGI,BT-549,> -4.00
same,GI50,"BT-549; Homo sapiens, BT-549, read-out: Log10 GI50 (converted)",25.7 µM
same,GI50,"OVCAR-4; Homo sapiens, OVCAR-4, 48 h, read-out: Log10 GI50 (converted)",> 100 µM
same,Log10 TGI,"OVCAR-4; Ovarian Cancer, 48 hours exposure",> -4.00
same,GI50,MDA-MB-435,24 µM
same,GI50,"RXF-393; Homo sapiens, RXF 393, read-out: Log10 GI50 (converted)",0.676 µM
same,Log10 TGI,RXF-393,> -4.00
same,GI50,"UO-31; Homo sapiens, UO-31, read-out: Log10 GI50 (converted)",2.51 µM
same,Log10 TGI,UO-31,> -4.00
same,GI50,"ACHN; Homo sapiens, ACHN, read-out: Log10 GI50 (converted)",0.347 µM
same,Log10 TGI,ACHN,> -4.00
